Data on 6 compounds can be found in PubChem BioAssay AID1259411 (Chemical Carcinogenesis Research Information System (CCRIS), 2018).

The test system of the data set is rodent carcinogenicity bioassays, tumor incidence. As to the kind of experiment: CCRIS carcinogenicity studies. The gist of the method:
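Archive of carcinogenicity, mutagenicity, tumor promotion and tumor inhibition results drawn from journals, NCI reports and other sources, expert-reviewed; covers 1985-2011 and is no longer updated.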

Structures are written as SMILES. The source made the active and inactive calls. How the calls were made is not given here.

As to `CN(C)c1ccc(C(=O)c2ccc(N(C)C)cc2)cc1`, the carcinogen call by setting is: (Species: MOUSE, Strain/Sex: B6C3F1/FEMALE, Route: ORAL, Dose: 0, 1250, 2500 PPM IN DIET, Dose: 0, 1250, 2500 PPM IN DIET, Tumor Site: Type of Lesion: LIVER: HEPATOCELLULAR ADENOMA OR CARCINOMA) “active; positive”; (Species: MOUSE, Strain/Sex: B6C3F1/MALE, Route: ORAL, Dose: 0, 1250, 2500 PPM IN DIET, Dose: 0, 1250, 2500 PPM IN DIET, Tumor Site: Type of Lesion: INTEGUMENTARY SYSTEM (SUBCUTANEOUS TISSUE): HEMANGIOSARCOMA OR HEMANGIOMA) “active; positive”; (Species: RAT, Strain/Sex: F344/FEMALE, Route: ORAL, Dose: 0, 500, 1000 PPM IN DIET, Dose: 0, 500, 1000 PPM IN DIET, Tumor Site: Type of Lesion: LIVER: HEPATOCELLULAR CARCINOMA OR NEOPLASTIC NODULE) “active; positive”; (Species: RAT, Strain/Sex: F344/MALE, Route: ORAL, Dose: 0, 250, 500 PPM IN DIET, Dose: 0, 250, 500 PPM IN DIET, Tumor Site: Type of Lesion: LIVER: HEPATOCELLULAR CARCINOMA OR NEOPLASTIC NODULE) “active; positive”.

On to `Cc1ccc(O)c(O)c1`, for which the carcinogen call was “active; positive” (Species: RAT, Strain/Sex: F344/FEMALE, Route: ORAL, Dose: 0, 2% IN DIET FOR 104 WK (STUDY DURATION: 104 WK), Tumor Site: Type of Lesion: FORESTOMACH: PAPILLOMA, SQUAMOUS CELL CARCINOMA, GLANDULAR STOMACH: ADENOMA, ADENOCARCINOMA) and “active; positive” (Species: RAT, Strain/Sex: F344/MALE, Route: ORAL, Dose: 0, 2% IN DIET FOR 104 WK (STUDY DURATION: 104 WK), Tumor Site: Type of Lesion: FORESTOMACH: PAPILLOMA, SQUAMOUS CELL CARCINOMA, GLANDULAR STOMACH: ADENOMA, ADENOCARCINOMA).

As to `C=CSCCC(N)C(=O)O` (stereo unspecified), the carcinogen call runs as follows: (Species: RAT, Strain/Sex: F344/MALE, Route: INTRAPERITONEAL, Dose: 0, 50-100 MG/KG 5 D/WK FOR 12 WK, STUDY DURATION: 25 MO, Dose: 0, 50-100 MG/KG 5 D/WK FOR 12 WK, STUDY DURATION: 25 MO, Tumor Site: Type of Lesion: LIVER: HEPATOCELLULAR CARCINOMA) “active; positive”; (Species: RAT, Strain/Sex: F344/MALE, Route: ORAL, Dose: 0, 0.05% IN METHYL-DEFICIENT DIET FOR 20 MO, Tumor Site: Type of Lesion: LIVER: HEPATOCELLULAR CARCINOMA) “active; positive”.

Regarding `ClC(Cl)=C(Cl)C(Cl)=C(Cl)Cl`, the carcinogen call (Species: RAT, Strain/Sex: SPRAGUE-DAWLEY/MALE,FEMALE, Route: ORAL, Dose: 0.2, 2.0, 20 MG/KG/DAY IN DIET, Dose: 0.2, 2.0, 20 MG/KG/DAY IN DIET, Tumor Site: Type of Lesion: KIDNEY: RENAL TUBULAR ADENOMA, ADENOCARCINOMA) was “active; positive”.

Consider `CC(=O)CN(C)N=O`, for which the carcinogen call (Species: HAMSTER, Strain/Sex: SYRIAN/FEMALE, Route: GAVAGE, Dose: 0, 0.5 MG IN 0.1 ML WATER 2/WK FOR 22 WK FOR A TOTAL DOSE OF 22 MG (STUDY DURATION: 45 WK), Tumor Site: Type of Lesion: LIVER: HEMANGIOSARCOMA, CHOLANGIOCELLULAR CARCINOMA, CHOLANGIOCELLULAR ADENOMA, NASAL MUCOSA: CARCINOMA) is “active; positive”; the carcinogen call (Species: HAMSTER, Strain/Sex: SYRIAN/FEMALE, Route: GAVAGE, Dose: 0, 1 MG IN 0.1 ML WATER 2/WK FOR 11 WK FOR A TOTAL DOSE OF 22 MG (STUDY DURATION: 45 WK), Tumor Site: Type of Lesion: LIVER: TUMOR, NASAL MUCOSA: CARCINOMA) was “active; positive”; the carcinogen call (Species: HAMSTER, Strain/Sex: SYRIAN/FEMALE, Route: GAVAGE, Dose: 0, 2 MG IN 0.2 ML WATER 1/WK FOR 14 WK FOR A TOTAL DOSE OF 28 MG (STUDY DURATION: 17 WK), Tumor Site: Type of Lesion: LIVER: HEPATOCELLULAR ADENOMA, CHOLANGIOCELLULAR CARCINOMA OR ADENOMA, NASAL MUCOSA: CARCINOMA OR ADENOMA) is “active; positive”; the carcinogen call (Species: RAT, Strain/Sex: F344/FEMALE, Route: GAVAGE, Dose: 0, 4 MG/WK FOR A TOTAL DOSE OF 0.5 MMOL (STUDY DURATION: 40 WK), Tumor Site: Type of Lesion: ESOPHAGUS: TUMOR) was “active; positive”; the carcinogen call (Species: RAT, Strain/Sex: F344/MALE, Route: GAVAGE, Dose: 0, 2, 4, 10 MG/WK FOR A TOTAL DOSE OF 0.5, 0.5, 0.9 MMOL (STUDY DURATION: 70 WK), Dose: 0, 2, 4, 10 MG/WK FOR A TOTAL DOSE OF 0.5, 0.5, 0.9 MMOL (STUDY DURATION: 70 WK), Tumor Site: Type of Lesion: ESOPHAGUS: TUMOR) is “active; positive”.

As for `CC(O)C(=O)O` (stereo unspecified), the carcinogen call (Species: RAT, Strain/Sex: F344/FEMALE, Route: ORAL, Dose: 0, 2.5, 5% IN DRINKING WATER FOR 104 WK (MEAN TOTAL INTAKE 0; 237.7; 412.1 G/RAT) (STUDY DURATION: 113 WK), Dose: 0, 2.5, 5% IN DRINKING WATER FOR 104 WK (MEAN TOTAL INTAKE 0; 237.7; 412.1 G/RAT) (STUDY DURATION: 113 WK)) was “inactive; negative” and the carcinogen call (Species: RAT, Strain/Sex: F344/MALE, Route: ORAL, Dose: 0, 2.5, 5% IN DRINKING WATER FOR 104 WK (MEAN TOTAL INTAKE 0; 329.4; 625.4 G/RAT) (STUDY DURATION: 113 WK), Dose: 0, 2.5, 5% IN DRINKING WATER FOR 104 WK (MEAN TOTAL INTAKE 0; 329.4; 625.4 G/RAT) (STUDY DURATION: 113 WK)) was “inactive; negative”.
